Experiments:
Estrogen receptor beta = Estrogen receptor beta (Homo sapiens, UniProt Q92731)
Description: Binding affinity to human recombinant ERbeta by scintillation proximity assay

Estrogen receptor = target: T1, Estrogen receptor (Homo sapiens, UniProt P03372)
T1 sequence (P03372 whole entry): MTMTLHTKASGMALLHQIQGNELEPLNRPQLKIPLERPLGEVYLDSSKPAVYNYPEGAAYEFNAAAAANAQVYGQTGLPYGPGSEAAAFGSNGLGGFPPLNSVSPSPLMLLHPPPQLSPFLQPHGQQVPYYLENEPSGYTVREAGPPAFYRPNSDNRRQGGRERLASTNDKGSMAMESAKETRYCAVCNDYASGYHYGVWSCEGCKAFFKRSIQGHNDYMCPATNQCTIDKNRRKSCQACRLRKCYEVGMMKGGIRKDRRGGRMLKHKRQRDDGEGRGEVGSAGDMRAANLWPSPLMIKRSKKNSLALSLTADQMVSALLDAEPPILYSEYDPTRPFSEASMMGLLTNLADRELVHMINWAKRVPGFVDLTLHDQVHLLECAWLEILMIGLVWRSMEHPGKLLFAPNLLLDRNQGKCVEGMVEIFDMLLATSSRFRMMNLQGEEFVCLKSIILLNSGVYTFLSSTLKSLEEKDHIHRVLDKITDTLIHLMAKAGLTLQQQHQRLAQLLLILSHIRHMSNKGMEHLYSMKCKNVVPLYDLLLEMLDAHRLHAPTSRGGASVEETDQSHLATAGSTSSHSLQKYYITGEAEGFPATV
Description: Binding affinity to human recombinant ERalpha by scintillation proximity assay

Sequence of Estrogen receptor beta (Q92731 whole entry): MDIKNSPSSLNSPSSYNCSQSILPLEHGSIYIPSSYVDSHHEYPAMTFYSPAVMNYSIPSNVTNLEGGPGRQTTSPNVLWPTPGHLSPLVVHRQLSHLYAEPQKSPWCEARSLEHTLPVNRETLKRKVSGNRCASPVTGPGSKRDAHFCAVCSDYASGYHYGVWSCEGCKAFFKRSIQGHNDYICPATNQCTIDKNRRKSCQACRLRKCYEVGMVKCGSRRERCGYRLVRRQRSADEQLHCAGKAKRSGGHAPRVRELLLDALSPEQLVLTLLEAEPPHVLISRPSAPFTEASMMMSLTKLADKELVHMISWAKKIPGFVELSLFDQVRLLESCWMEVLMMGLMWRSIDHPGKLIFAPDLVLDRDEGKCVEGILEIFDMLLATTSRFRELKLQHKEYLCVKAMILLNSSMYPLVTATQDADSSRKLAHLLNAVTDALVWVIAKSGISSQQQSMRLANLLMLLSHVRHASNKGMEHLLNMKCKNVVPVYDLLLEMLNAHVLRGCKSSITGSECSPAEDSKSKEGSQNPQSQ

Row | Structure (SMILES) | IC50 (Estrogen receptor beta) [nM] | IC50 (Estrogen receptor) [nM]
1 | CC1=C2c3ccc(O)cc3C[C@@]23CC[C@H](C3)C1=O | 12 | 793
2 | CC[C@@H]1CC[C@@H]2C[C@]13Cc1cc(O)ccc1C3=C(C)C2=O | 5 | 146
3 | CC[C@H]1CC[C@@H]2C[C@]13Cc1cc(O)ccc1C3=C(C)C2=O | 45 | 310
4 | CCC[C@H]1CC[C@@H]2C[C@]13Cc1cc(O)ccc1C3=C(C)C2=O | 141 | 605
5 | CC1=C2c3ccc(O)cc3C[C@@]23CCC[C@H](C3)C1=O | 11 | 414
6 | CCC[C@@H]1CC[C@@H]2C[C@]13Cc1cc(O)ccc1C3=C(C)C2=O | 5 | 84

Source: ChEMBL document CHEMBL1149514, “Tetrahydrofluorenones with conformationally restricted side chains as selective estrogen receptor beta ligands” (Bioorg Med Chem Lett, 2006)
